ChEMBL document CHEMBL5380795, “Design, Synthesis, and Bioactivity Investigation of Cyclic Lipopeptide Antibiotics Containing Eight to Nine Amino Acids” (J Med Chem, 2023)
≈ marks a conversion by molar mass, not a printed value. Calls of active or inactive are those of the source. No cut-off for these calls is given here.

Tests used:
Escherichia coli [1] = assay: Potentiation of rifampicin induced antibacterial activity in Escherichia coli ATCC 25922 assessed as rifampicin MIC at 0.004 ug/ml incubated for 18 to 24 hrs by broth microdilution method (reference value: 2 ug/ml); format: functional; details: dose 0.004 µg/ml, time 18-24 hrs
Escherichia coli [2] = assay: Antibacterial activity against Escherichia coli ATCC BAA-2523 assessed as inhibition of bacterial growth incubated for 18 to 24 hrs by broth microdilution method; format: functional; details: time 18-24 hrs
Pseudomonas aeruginosa [3] = assay: Antibacterial activity against carbapenem resistant Pseudomonas aeruginosa clinical isolate 17-1 assessed as inhibition of bacterial growth incubated for 18 to 24 hrs by broth microdilution method; format: functional; details: time 18-24 hrs
[4] = Cytotoxicity against human HK-2 cells assessed as inhibition of cell growth incubated for 72 hrs by CCK-8 assay; format: toxicity, cell-based
Lipopolysaccharide (LPS) = assay: Binding affinity to LIP-1 sensor chip immobilized Escherichia coli LPS assessed as increase in resonance units measured for 600 secs by SPR analysis; details: dose 0.125-4 µM, time 600.0 sec
[5] = Acute toxicity in ICR mouse administered into tail vein and measured twice daily over 1 week; details: in vivo, route iv, time 1 weeks
[6] = Selectivity index, ratio of IC50 for cytotoxicity against human HK-2 cells to MIC for antibacterial activity against Escherichia coli ATCC BAA-2523; format: toxicity, cell-based
Escherichia coli [7] = assay: Potentiation of rifampicin induced antibacterial activity in Escherichia coli ATCC 25922 assessed as rifampicin MIC at 0.5 ug/ml incubated for 18 to 24 hrs by broth microdilution method (reference value: 2 ug/ml); format: functional; details: dose 0.5 µg/ml, time 18-24 hrs
[8] = Acute toxicity in ICR mouse assessed as adverse effects at 8.19 mg/kg, iv administered into tail vein and measured twice daily over 1 week; format: organism-based; details: in vivo, 168 h, time 1 weeks
Escherichia coli [9] = assay: Bactericidal activity against Escherichia coli ATCC BAA-2523 assessed as reduction in bacterial count at 4 times MIC measured after 2 hrs by time-kill assay; format: functional, organism-based
Escherichia coli [10] = assay: Potentiation of rifampicin induced antibacterial activity in Escherichia coli ATCC 25922 assessed as rifampicin MIC at 0.06 ug/ml incubated for 18 to 24 hrs by broth microdilution method (reference value: 2 ug/ml); format: functional; details: dose 0.06 µg/ml, time 18-24 hrs
[11] = test system: Staphylococcus epidermidis; assay: Antibacterial activity against methicillin resistant Staphylococcus epidermidis clinical isolate 19-6 assessed as inhibition of bacterial growth incubated for 18 to 24 hrs by broth microdilution method; format: functional; details: time 18-24 hrs
Escherichia coli [12] = assay: Antibacterial activity against Escherichia coli ATCC BAA-2523 infected in ICR mouse assessed as mouse survival at 4 to 8 mg/kg, iv administered into tail vein and measured daily for 7 days; format: functional, organism-based; details: dose 4-8 mg/kg, time 7.0 day
Pseudomonas aeruginosa [13] = assay: Antibacterial activity against carbapenem resistant Pseudomonas aeruginosa clinical isolate 19-3 assessed as inhibition of bacterial growth incubated for 18 to 24 hrs by broth microdilution method; format: functional; details: time 18-24 hrs

Q: With `CCCCCCC[C@@H](O)CC(=O)N[C@H](CCN)C(=O)N[C@H]1CCNC(=O)[C@H]([C@@H](C)O)NC(=O)[C@H](CCN)NC(=O)[C@H](CCN)NC(=O)[C@H]([C@@H](C)O)NC(=O)[C@@H](Cc2ccccc2)NC(=O)[C@H](CCN)NC1=O` as the molecule, how does the MIC (Escherichia coli [1]) read?
A: 0.5 µg/mL

Q: What about the MIC (Escherichia coli [2]) of the same molecule?
A: 0.5 µg/mL (≈ 0.49 µM)

Q: What about the MIC (Pseudomonas aeruginosa [3]) of the same molecule?
A: 0.5 µg/mL (≈ 0.49 µM)

Q: And the IC50 at 72 h [4]?
A: 414 µg/mL (≈ 406 µM)

Q: What about the Activity (Lipopolysaccharide (LPS)) of the same molecule?
A: Dose-Dependent Effect

Q: What about the LD50 at 168 h [5] of the same molecule?
A: 12.4 mg/kg

Q: And the selectivity ratio [6]?
A: 828

Q: What about the MIC (Escherichia coli [7]) of the same molecule?
A: ≤ 0.06 µg/mL

Q: And the Activity [8]?
A: Non-Toxic

Q: And the Activity (Escherichia coli [9])?
A: Active

Q: And the MIC (Escherichia coli [10])?
A: ≤ 0.06 µg/mL

Q: And the MIC [11]?
A: > 64 µg/mL

Q: What about the Activity (Escherichia coli [12]) of the same molecule?
A: Active

Q: What about the MIC (Pseudomonas aeruginosa [13]) of the same molecule?
A: 0.5 µg/mL (≈ 0.49 µM)
